This is an account of results in US8586588B2, “Aryl pyridazinone derivatives and their use as H3 receptor ligands” (Cephalon, Inc., priority 2006, dated 2013).

Read-outs that look alike come from different tables or passages of the source.

One test addresses T1, human H3 receptor (Homo sapiens, UniProt Q9Y5N1).
T1 construct: expressed in transfected cells
Kind of test: Human H3 radioligand binding ([3H]-N-alpha-methylhistamine, CHO cell membranes, SPA). Conditions: binding constant as letter class. How it is done: (§1) Cell pellets were resuspended in 5 mM Tris-HCl, pH 7.5 with […] and a cocktail of protease inhibitors (Complete Protease Inhibition Tablets, Roche Diagnostics). Cells were disrupted using a polytron cell homogenizer and the suspension was centrifuged at 1000×g for 10 minutes at 4° C. The pellet was discarded and the supernatant centrifuged at 40,000×g for 30 min at 4° C. This membrane pellet was washed in membrane buffer containing 50 mM Tris-HCl, pH 7.5 with 0.6 mM EDTA, 5 mM MgCl2 and protease inhibitors, recentrifuged as above and the final pellet resuspended in membrane buffer plus 250 mM sucrose and frozen at −80° C.
(§2) Membranes were resuspended in 50 mM Tris HCl (pH 7.4), 5 mM MgCl2, 0.1% BSA. The membrane suspensions (10 μg protein per well) were incubated in a 96 well microtiter plate with [^3H]-N-alpha-methylhistamine (approximately 1 nM final concentration), test compounds at various concentrations (0.01 nM-30 μM) and scintillation proximity beads (Perkin Elmer, FlashBlueGPCR Scintillating Beads) in a final volume of 80 μl for 4 hours at room temperature, protected from light. Non-specific binding was determined in the presence of 10 μM clobenpropit. Radioligand bound to receptor, and therefore in proximity to the scintillation beads, was measured using a MicroBeta scintillation counter.

The target in test [1] is T2, rat histamine H3 receptor (Rattus norvegicus, UniProt Q9QYN8).
T2 construct: encoding the entire 445-amino-acid rat histamine H3 receptor; expressed in transfected cells
T2 sequence (Q9QYN8 whole entry): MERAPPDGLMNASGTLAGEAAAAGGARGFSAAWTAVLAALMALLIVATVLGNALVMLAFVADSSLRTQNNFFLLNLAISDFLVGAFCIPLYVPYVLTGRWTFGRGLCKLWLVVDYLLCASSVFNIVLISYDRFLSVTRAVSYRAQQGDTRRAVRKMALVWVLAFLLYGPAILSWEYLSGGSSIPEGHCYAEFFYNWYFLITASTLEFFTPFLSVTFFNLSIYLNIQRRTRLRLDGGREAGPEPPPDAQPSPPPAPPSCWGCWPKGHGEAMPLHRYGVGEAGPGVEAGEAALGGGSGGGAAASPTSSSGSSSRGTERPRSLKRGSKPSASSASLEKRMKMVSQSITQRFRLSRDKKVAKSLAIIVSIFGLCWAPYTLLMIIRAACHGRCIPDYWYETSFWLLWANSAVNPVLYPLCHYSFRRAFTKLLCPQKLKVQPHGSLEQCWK
Kind of test: Rat H3 radioligand binding ([3H]-N-alpha-methylhistamine, CHO-A3 cell membranes, SPA). The procedure:
as §1, with “This was engineered into the pIRES-neo3 mammalian expression vector, which was stably transfected into the CHO-A3 cell line (Euroscreen, Belgium), followed by clonal selection by limiting dilution. Cells were harvested and cell pellets were frozen (−80° C.). Cell pellets” for “Cell pellets”
as §2

Setting [2] is: Table B, binding constant as letter class, read-out: rat H3 Ki.
Setting [3] is: Table A, binding constant as letter class, read-out: Rat H3 Ki.

As a reminder, the Ki is a measure of affinity in units of concentration, obtained from inhibition or displacement.

T1 sequence (Q9Y5N1 whole entry): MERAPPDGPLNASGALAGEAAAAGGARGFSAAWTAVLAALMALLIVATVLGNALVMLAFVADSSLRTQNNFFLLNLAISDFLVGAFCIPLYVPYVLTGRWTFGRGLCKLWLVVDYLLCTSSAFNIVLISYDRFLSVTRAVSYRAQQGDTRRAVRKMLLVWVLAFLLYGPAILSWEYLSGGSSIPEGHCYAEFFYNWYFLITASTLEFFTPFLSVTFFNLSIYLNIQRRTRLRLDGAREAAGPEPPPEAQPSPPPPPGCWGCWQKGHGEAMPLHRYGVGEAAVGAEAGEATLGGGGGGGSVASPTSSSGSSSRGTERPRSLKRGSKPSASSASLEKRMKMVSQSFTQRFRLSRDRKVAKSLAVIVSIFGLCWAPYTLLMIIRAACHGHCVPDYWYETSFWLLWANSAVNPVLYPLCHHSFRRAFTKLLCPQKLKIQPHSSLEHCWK

Turning to `CC1CC(=O)NN=C1c1ccc(OCCCN2CCC[C@H]2C)cc1` (mixture of isomers) [Example 194, 5-Methyl-6-{4-[3-((R)-2-methyl-pyrrolidin-1-yl)-propoxy]-phenyl}-4,5-dihydro-2H-pyridazin-3-one], the Ki (at human H3 receptor (Table B); in test [1] (setting [2])) was 0.1 to 100 nM throughout.

For the molecule `CC1CC(=O)NN=C1c1ccc(OCCCN2CCCCC2)cc1` (racemic) [Example 197, 5-Methyl-6-[4-(3-piperidin-1-yl-propoxy)-phenyl]-4,5-dihydro-2H-pyridazin-3-one], the Ki (on human H3 receptor (Table B); in test [1] (setting [2])) was 0.1 to 100 nM throughout. For `CC1CC(=O)NN=C1c1ccc(OCCCN2CCCC2)cc1` (racemic) [Example 198, 5-Methyl-6-[4-(3-pyrrolidin-1-yl-propoxy)-phenyl]-4,5-dihydro-2H-pyridazin-3-one], the Ki (at human H3 receptor (Table B); in test [1] (setting [2])) was 0.1 to 100 nM each time. In the case of `C[C@@H]1CCCN1CCCOc1ccc(C2=NNC(=O)C3CC23)cc1` (mixture of isomers) [Example 243, 5-{4-[3-((R)-2-Methyl-pyrrolidin-1-yl)-propoxy]-phenyl}-3,4-diaza-bicyclo[4.1.0]hept-4-en-2-one], the Ki (on human H3 receptor (Table B); in test [1] (setting [2])) was 0.1 to 100 nM throughout.

For the molecule `CC1CC(=O)NN=C1c1ccc(OCCCN2CCC[C@H]2C)cc1` (single isomer, unassigned) [Example 195], the Ki (at human H3 receptor (Table B); in test [1] (setting [2])) was 0.1 to 100 nM each time.

As to `CC1CC(=O)NN=C1c1ccc(OCCCN2CCC[C@H]2C)cc1` (single isomer, unassigned) [Example 196], the Ki (at human H3 receptor (Table B); in test [1] (setting [2])) was 0.1 to 100 nM each time. With `C[C@@H]1CCCN1CCCOc1ccc(C2=NNC(=O)C3CC23)cc1` (single isomer, unassigned) [Example 246], the Ki (on human H3 receptor (Table B); in test [1] (setting [2])) was 0.1 to 100 nM throughout. `C[C@@H]1CCCN1CCCOc1ccc(C2=NNC(=O)C3CC23)cc1` (single isomer, unassigned) [Example 247]: the Ki in test [1] (setting [2]) was 0.1 to 100 nM. Consider `O=C1NN=C(c2ccc(OC3CCN(C4CCC4)CC3)cc2)C2CC12` (single isomer, unassigned) [Example 248, 5-[4-(1-Cyclobutyl-piperidin-4-yloxy)-phenyl]-3,4-diaza-bicyclo[4.1.0]hept-4-en-2-one], for which the Ki (on human H3 receptor (Table B); in test [1] (setting [2])) was 0.1 to 100 nM in each case.

Regarding `O=C1NN=C(c2ccc(OC3CCN(C4CCC4)CC3)cc2)C2CC12` (single isomer, unassigned) [Example 249, 5-[4-(1-Cyclobutyl-piperidin-4-yloxy)-phenyl]-3,4-diaza-bicyclo[4.1.0]hept-4-en-2-one], the Ki (on human H3 receptor (Table B); in test [1] (setting [2])) was 0.1 to 100 nM throughout.

Turning to `C[C@@H]1CCCN1CCCOc1ccc(-c2ccc(=O)n(C)n2)cc1` [Example 1, 2-Methyl-6-{4-[3-((R)-2-methyl-pyrrolidin-1-yl)-propoxy]-phenyl}-2H-pyridazin-3-one], the inhibition constant (Ki) (on human H3 receptor (Table A); in test [1] (setting [3])) was 0.1 to 100 nM throughout. With `Cn1nc(-c2ccc(OCCCN3CCCCC3)cc2)ccc1=O` [Example 2, 2-Methyl-6-[4-(3-piperidin-1-yl-propoxy)-phenyl]-2H-pyridazin-3-one], the Ki on human H3 receptor (Table A) lay within 0.1 to 100 nM; in test [1] (setting [3]), 101 to 500 nM. Regarding `CC(C)n1nc(-c2ccc(OCCCN3CCCCC3)cc2)ccc1=O` [Example 3, 2-Isopropy1-6-[4-(3-piperidin-1-yl-propoxy)-pheny1]-2H-pyridazin-3-one], the Ki (on human H3 receptor (Table A); in test [1] (setting [3])) was 0.1 to 100 nM each time.

As for `CC(C)N1N=C(c2ccc(OCCCN3CCCCC3)cc2)CCC1=O` [Example 4, 2-Isopropy1-6-[4-(3-piperidin-1-yl-propoxy)-phenyl]-4,5-dihydro-2H-pyridazin-3-one], the Ki (on human H3 receptor (Table A); in test [1] (setting [3])) was 0.1 to 100 nM in each case. Turning to `CC(C)n1nc(-c2ccc(OCCCN3CCC[C@H]3C)cc2)ccc1=O` [Example 5, 2-Isopropyl-6-{4-[3-((R)-2-methyl-pyrrolidin-1-yl)-propoxy]-phenyl}-2H-pyridazin-3-one], the Ki (on human H3 receptor (Table A); in test [1] (setting [3])) was 0.1 to 100 nM throughout. As for `CCn1nc(-c2ccc(OCCCN3CCC[C@H]3C)cc2)ccc1=O` [Example 6, 2-Ethyl-6-{4-[3-((R)-2-methyl-pyrrolidin-1-yl)-propoxy]-phenyl}-2H-pyridazin-3-one], the Ki (at human H3 receptor (Table A); in test [1] (setting [3])) was 0.1 to 100 nM each time. In the case of `C[C@@H]1CCCN1CCCOc1ccc(-c2ccc(=O)n(C)n2)cc1F` [Example 7, 6-{3-Fluoro-4-[3-((R)-2-methyl-pyrrolidin-1-yl)-propoxy]-phenyl}-2-methyl-2H-pyridazin-3-one], the Ki (on human H3 receptor (Table A); in test [1] (setting [3])) was 0.1 to 100 nM throughout. In the case of `C[C@@H]1CCCN1CCCOc1ccc(C2=NN(Cc3ccc(Cl)cc3Cl)C(=O)CC2)cc1` [Example 8, 2-(2,4-Dichloro-benzyl)-6-{4-[3-((R)-2-methyl-pyrrolidin-1-yl)-propoxy]-phenyl}-4,5-dihydro-2H-pyridazin-3-one], the Ki (at human H3 receptor (Table A); in test [1] (setting [3])) was 0.1 to 100 nM throughout.

As to `C[C@@H]1CCCN1CCCOc1ccc(-c2ccc(=O)n(-c3cc(Cl)cc(Cl)c3)n2)cc1` [Example 9, 2-(3,5-Dichloro-phenyl)-6-{4-[3-((R)-2-methyl-pyrrolidin-1-yl)-propoxy]-phenyl}-2H-pyridazin-3-one], the Ki (at human H3 receptor (Table A); in test [1] (setting [3])) was 0.1 to 100 nM in each case. Turning to `O=c1ccc(-c2ccc(OCCCN3CCCCC3)c(F)c2)nn1-c1ccccc1` [Example 10, 6-[3-Fluoro-4-(3-piperidin-1-yl-propoxy)-phenyl]-2-phenyl-2H-pyridazin-3-one], the inhibitory constant (Ki) on human H3 receptor (Table A) fell in the range of 0.1 to 100 nM; in test [1] (setting [3]) it was 101 to 500 nM. For `C[C@@H]1CCCN1CCCOc1ccc(-c2ccc(=O)[nH]n2)cc1` [Example 11, 6-{4-[3-((R)-2-Methyl-pyrrolidin-1-yl)-propoxy]-phenyl}-2H-pyridazin-3-one], the Ki (on human H3 receptor (Table A); in test [1] (setting [3])) was 0.1 to 100 nM throughout. Consider `C[C@@H]1CCCN1CCCOc1ccc(-c2n[nH]c(=O)c3c2CCC3)cc1` [Example 12, 4-{4-[3-((R)-2-Methyl-pyrrolidin-1-yl)-propoxy]-phenyl}-2,5,6,7-tetrahydro-cyclopenta[d]pyridazin-1-one], for which the Ki (at human H3 receptor (Table A); in test [1] (setting [3])) was 0.1 to 100 nM each time. On to `C[C@H](COc1ccc(-c2ccc(=O)n(C)n2)cc1)CN1CCC[C@H]1C` [Example 13, 2-Methyl-6-{4-[(S)-2-methyl-3-((R)-2-methyl-pyrrolidin-1-yl)-propoxy]-phenyl}-2H-pyridazin-3-one], for which the Ki (on human H3 receptor (Table A); in test [1] (setting [3])) was 0.1 to 100 nM throughout. Consider `Cn1nc(-c2ccc(OCCCN3CCC[C@H]3CO)cc2)ccc1=O` [Example 14, 6-{4-[3-((S)-2-Hydroxymethyl-pyrrolidin-1-yl)-propoxy]-phenyl}-2-methyl-2H-pyridazin-3-one], for which the Ki in test [1] lay in the range of 0.1 to 100 nM. Still for that read-out and setting: for `Cn1nc(-c2ccc(OCCCN3CCC[C@@H]3CO)cc2)ccc1=O` [Example 15, 6-{4-[3-((R)-2-Hydroxymethyl-pyrrolidin-1-yl)-propoxy]-phenyl}-2-methyl-2H-pyridazin-3-one] the value was 501 to 1000 nM. For the molecule `C[C@@H]1CCCN1CCCOc1ccc(C2=NN(C)C(=O)CC2)cc1` [Example 16, 2-Methyl-6-{4-[3-((R)-2-methyl-pyrrolidin-1-yl)-propoxy]-phenyl}-4,5-dihydro-2H-pyridazin-3-one], the Ki (on human H3 receptor (Table A); in test [1] (setting [3])) was 0.1 to 100 nM in each case.

Consider `C[C@@H]1CCCN1CCCOc1ccc(C2=NN(Cc3ccccc3)C(=O)CC2)cc1` [Example 17, 2-Benzyl-6-{4-[3-((R)-2-methyl-pyrrolidin-1-yl)-propoxy]-phenyl}-4,5-dihydro-2H-pyridazin-3-one], for which the Ki (at human H3 receptor (Table A); in test [1] (setting [3])) was 0.1 to 100 nM throughout.

As for `C[C@@H]1CCCN1CCCOc1ccc(-c2n[nH]c(=O)cc2-c2ccccn2)cc1` [Example 112, 6-{4-[3-((R)-2-Methyl-pyrrolidin-1-yl)-propoxy]-phenyl}-5-pyridin-2-yl-2H-pyridazin-3-one], the Ki at human H3 receptor (Table B) was 0.1 to 100 nM.

`C[C@@H]1CC(=O)NN=C1c1ccc(OC2CCN(C3CCC3)CC2)cc1` [Example 190, (R)-6-[4-(1-Cyclobutyl-piperidin-4-yloxy)-phenyl]-5-methyl-4,5-dihydro-2H-pyridazin-3-one] yielded a Ki in test [1] of 0.1 to 100 nM. On the same count and under the same terms, as for `C[C@H]1CC(=O)NN=C1c1ccc(OC2CCN(C3CCC3)CC2)cc1` [Example 191, (S)-6-[4-(1-Cyclobutyl-piperidin-4-yloxy)-phenyl]-5-methyl-4,5-dihydro-2H-pyridazin-3-one], the figure is 0.1 to 100 nM.
